Key:
Myosoton aquaticum = assay: pot-culture method, stem and leaf treatment in greenhouse, fresh weight inhibition rate 20 days after treatment (Gowing method); type: in vivo; conditions: for pest or weed control at 750 g/ha: 750 g/hm^2
Procedure: (§1) Capsella bursa-pastoris, Myosoton aquaticum, Alopecurus japonicus were collected from corn fields in Huangdao Experimental Base of Shandong Province.
(§2) The above weeds were cultivated by a pot culture method. […] Full and uniform weed seeds were selected, soaked in warm water at 25° C. for 6 hours, and germinated in a 28° C. biochemical incubator (darkness). […] A certain amount of water was added to the enamel pan regularly to keep the soil moist.
(§3) The technical materials were all dissolved in acetone, and diluted with an aqueous solution containing 0.1% emulsifier T-80. The dilution is performed as required.
(§4) A ratio of the active ingredient A to the active ingredient B and amounts thereof in each group depends on the characteristics and toxicity of the two agents, as well as the main application purpose of a corresponding formulation. Based on the pre-tests in this study, the dosage of the active ingredient A and the active ingredient B applied alone and in combination were shown in the tables, and a total 15 groups were designed. Water containing the solvent and emulsifier same with the above groups but free of the agents was used as a blank control.
(§5) 3 pots with 20 weed seeds per pot were treated in one treatment with […] per treatment, that is, a total of 60 weeds were treated in one treatment.
(§6) The agents were used for only once in the experiment. In the stage of weeds with 2 leaves and 1 core, the weeds were thinned out to maintain 15 weeds per pot and 45 weeds for each treatment, then continued to be cultured to 3-5-leaves stage of Capsella bursa-pastoris and Myosoton aquaticum, and 3-leaves and 1-core stage of Alopecurus japonicus, and treated.
(§7) The well-cultured weeds were evenly placed on a platform with an area of 0.5 m^2, and a solution of agents was sprayed on the stems and leaves thereof by the 3WP-2000-type walking spray tower at a dosage of 30 kg/ha and at a spray pressure of 0.3 MPa. After all the solution was sprayed, the valve was closed. After 30 seconds, the door of the spray tower was opened, and the nutritional bowl was taken out. Then the valve was opened, and the spray tube was cleaned by spraying 50 ml of water.
(§8) A pot-culture method was employed. For the cultivation of weeds, please refer to the Section 1.2, and “Pesticide guidelines for laboratory bioactivity tests—herbicides”. As to a method for applying agents, please refer to the section 2.3.2, that is, a method for treating stems and leaves was employed.
(§9) A method for investigating absolute number was employed, wherein whole seedlings of survival weeds were cut off with a blade along the soil surface, and the fresh weight of the weeds was weighed with an analytical balance. For dead weeds, the fresh weight thereof was zero.
(§10) The investigation was performed after 20 days of the treatment for only once.
(§11) Wherein, in the formula, X represented the fresh weight inhibition rate of the active ingredient A in a dosage of P, and Y represented the fresh weight inhibition rate of the active ingredient B in a dosage of Q.

Capsella bursa-pastoris = assay: as above; type: in vivo; conditions: for pest or weed control at 750 g/ha: 750 g/hm^2
Procedure: as §1, §2, §3, §4, §5, §6, §7, §8, §9, §10, §11

[1] = Myosoton aquaticum, 480 h, Myosoton aquaticum, read-out: actual fresh weight inhibition rate
[2] = 480 h, Capsella bursa-pastoris, read-out: actual fresh weight inhibition rate

Molecule: CCCCOC(=O)COc1ccc(Cl)cc1Cl [2,4-butyl ester, 2,4-D butyl ester, reference compound]
- actual fresh weight inhibition rate (%) (Myosoton aquaticum; dosage 200 g/hm^2): 18.4%
- actual fresh weight inhibition rate (%) (Myosoton aquaticum; dosage 350 g/hm^2): 29.8%
- actual fresh weight inhibition rate (%) (Myosoton aquaticum; dosage 500 g/hm^2): 49.3%
- actual fresh weight inhibition rate (%) (Capsella bursa-pastoris; dosage 200 g/hm^2): 23.4%
- actual fresh weight inhibition rate (%) (Capsella bursa-pastoris; dosage 350 g/hm^2): 42.9%
- actual fresh weight inhibition rate (%) (Capsella bursa-pastoris; dosage 500 g/hm^2): 55.6%

Molecule: Cc1cc(Cl)ccc1OCC(=O)OCCCCCC(C)C [MCPA-isooctyl, reference compound]
- actual fresh weight inhibition rate (%) (Myosoton aquaticum; dosage 600 g/hm^2): 23.8%
- actual fresh weight inhibition rate (%) (Myosoton aquaticum; dosage 1200 g/hm^2): 35.6%
- actual fresh weight inhibition rate (%) (Myosoton aquaticum; dosage 1800 g/hm^2): 45.8%
- actual fresh weight inhibition rate (%) (Capsella bursa-pastoris; dosage 600 g/hm^2): 33.2%
- actual fresh weight inhibition rate (%) (Capsella bursa-pastoris; dosage 1200 g/hm^2): 41.7%
- actual fresh weight inhibition rate (%) (Capsella bursa-pastoris; dosage 1800 g/hm^2): 60.5%

Molecule: CC(C)c1ccc(NC(=O)N(C)C)cc1 [isoproturon]
- pest or weed control at 300 g/ha (Myosoton aquaticum; Myosoton aquaticum, 480 h, Myosoton aquaticum, 300 g/hm^2, read-out: actual fresh weight inhibition rate): 19.4%
- pest or weed control at 750 g/ha (Myosoton aquaticum; [1]): 26.4%
- pest or weed control at 1200 g/ha (Myosoton aquaticum; Myosoton aquaticum, 480 h, Myosoton aquaticum, 1200 g/hm^2, read-out: actual fresh weight inhibition rate): 47.5%
- pest or weed control at 300 g/ha (Capsella bursa-pastoris; 480 h, Capsella bursa-pastoris, 300 g/hm^2, read-out: actual fresh weight inhibition rate): 21.7%
- pest or weed control at 750 g/ha (Capsella bursa-pastoris; [2]): 33.7%
- pest or weed control at 1200 g/ha (Capsella bursa-pastoris; 480 h, Capsella bursa-pastoris, 1200 g/hm^2, read-out: actual fresh weight inhibition rate): 57.2%

Molecule: Cc1nn(-c2cc(CC(Cl)C(=O)O)c(Cl)cc2F)c(=O)n1C(F)F (stereo not drawn) [carfentrazone, reference compound]
- actual fresh weight inhibition rate (%) (Myosoton aquaticum; dosage 12 g/hm^2): 32.1%
- actual fresh weight inhibition rate (%) (Myosoton aquaticum; dosage 24 g/hm^2): 45.8%
- actual fresh weight inhibition rate (%) (Myosoton aquaticum; dosage 36 g/hm^2): 60.1%
- actual fresh weight inhibition rate (%) (Capsella bursa-pastoris; dosage 12 g/hm^2): 55.2%
- actual fresh weight inhibition rate (%) (Capsella bursa-pastoris; dosage 24 g/hm^2): 71.3%
- actual fresh weight inhibition rate (%) (Capsella bursa-pastoris; dosage 36 g/hm^2): 80.5%

Molecule: dimethylammonium 4-chloro-o-tolyloxyacetate [MCPA-dimethylammonium, reference compound]
- actual fresh weight inhibition rate (%) (Myosoton aquaticum; dosage 550 g/hm^2): 26.7%
- actual fresh weight inhibition rate (%) (Myosoton aquaticum; dosage 950 g/hm^2): 33.1%
- actual fresh weight inhibition rate (%) (Myosoton aquaticum; dosage 1350 g/hm^2): 47.2%
- actual fresh weight inhibition rate (%) (Capsella bursa-pastoris; dosage 550 g/hm^2): 29.2%
- actual fresh weight inhibition rate (%) (Capsella bursa-pastoris; dosage 950 g/hm^2): 43.6%
- actual fresh weight inhibition rate (%) (Capsella bursa-pastoris; dosage 1350 g/hm^2): 59.2%

Molecule: CC(C)CCCCCOC(=O)COc1ccc(Cl)cc1Cl [2,4-D isooctyl ester, reference compound]
- actual fresh weight inhibition rate (%) (Myosoton aquaticum; dosage 200 g/hm^2): 15.4%
- actual fresh weight inhibition rate (%) (Myosoton aquaticum; dosage 350 g/hm^2): 26.3%
- actual fresh weight inhibition rate (%) (Myosoton aquaticum; dosage 500 g/hm^2): 47.9%
- actual fresh weight inhibition rate (%) (Capsella bursa-pastoris; dosage 200 g/hm^2): 21.1%
- actual fresh weight inhibition rate (%) (Capsella bursa-pastoris; dosage 350 g/hm^2): 34.2%
- actual fresh weight inhibition rate (%) (Capsella bursa-pastoris; dosage 500 g/hm^2): 55.9%

Molecule: CSc1nnc(C(C)(C)C)c(=O)n1N [metribuzin, reference compound]
- actual fresh weight inhibition rate (%) (Myosoton aquaticum; dosage 13.5 g/hm^2): 42.1%
- actual fresh weight inhibition rate (%) (Myosoton aquaticum; dosage 25 g/hm^2): 52.9%
- actual fresh weight inhibition rate (%) (Myosoton aquaticum; dosage 36.5 g/hm^2): 58.5%
- actual fresh weight inhibition rate (%) (Capsella bursa-pastoris; dosage 13.5 g/hm^2): 55.6%
- actual fresh weight inhibition rate (%) (Capsella bursa-pastoris; dosage 25 g/hm^2): 64.1%
- actual fresh weight inhibition rate (%) (Capsella bursa-pastoris; dosage 36.5 g/hm^2): 82.3%

Molecule: Nc1c(Cl)c(F)nc(OCC(=O)O)c1Cl [fluroxypyr, reference compound]
- actual fresh weight inhibition rate (%) (Myosoton aquaticum; dosage 100 g/hm^2): 90.1%
- actual fresh weight inhibition rate (%) (Myosoton aquaticum; dosage 150 g/hm^2): 100%
- actual fresh weight inhibition rate (%) (Myosoton aquaticum; dosage 200 g/hm^2): 100%
- actual fresh weight inhibition rate (%) (Capsella bursa-pastoris; dosage 100 g/hm^2): 10.1%
- actual fresh weight inhibition rate (%) (Capsella bursa-pastoris; dosage 150 g/hm^2): 18.3%
- actual fresh weight inhibition rate (%) (Capsella bursa-pastoris; dosage 200 g/hm^2): 28.7%

Molecule: CC(C)N1C(=O)c2ccccc2NS1(=O)=O [bentazon]
- pest or weed control at 500 g/ha (Myosoton aquaticum; Myosoton aquaticum, 480 h, Myosoton aquaticum, 500 g/hm^2, read-out: actual fresh weight inhibition rate): 33.4%
- pest or weed control at 750 g/ha (Myosoton aquaticum; [1]): 46.2%
- pest or weed control at 1000 g/ha (Myosoton aquaticum; Myosoton aquaticum, 480 h, Myosoton aquaticum, 1000 g/hm^2, read-out: actual fresh weight inhibition rate): 58.7%
- pest or weed control at 500 g/ha (Capsella bursa-pastoris; 480 h, Capsella bursa-pastoris, 500 g/hm^2, read-out: actual fresh weight inhibition rate): 38.5%
- pest or weed control at 750 g/ha (Capsella bursa-pastoris; [2]): 58.2%
- pest or weed control at 1000 g/ha (Capsella bursa-pastoris; 480 h, Capsella bursa-pastoris, 1000 g/hm^2, read-out: actual fresh weight inhibition rate): 73.1%

From US10506810B2, “Synergistic herbicidal composition” (QINGDAO KINGAGROOT RESISTANT WEED MANAGEMENT CO., LTD., priority 2015, dated 2019)
